Measurements from patent publication US11389414B2, “Methods for treating atherosclerosis with gamma-ketoaldehyde scavengers” (Vanderbilt University, priority 2017, dated 2022).

How the values were obtained:
[1] = background statement; cited from earlier work
[2] = test system: hypercholesterolemic Ldlr^−/− mice; experiment: Atherosclerosis analysis (Oil-Red-O proximal aorta cross-sections and en face aorta) in western diet fed mice; format: in vivo, mouse; details: western diet 16 weeks; for reduction of atherosclerosis, en face analysis of the aorta / reduction of the extent of proximal aortic atherosclerosis: 1 g/L in water
Experimental: (§1) Mice: Ldlr^−/− and WT on C57BL/6 background mice were obtained from the Jackson Laboratory. Animal protocols were performed according to the regulations of Vanderbilt University's Institutional Animal Care and Usage Committee. Mice were maintained on chow or a Western-type diet containing 21% milk fat and 0.15% cholesterol (Teklad). Eight week old, female mice were pretreated mice with vehicle alone (Water) or containing either 1 g/L of 4-HOBA or 1 g/L of 2-HOBA. After two weeks, the mice continued to receive treatment and were administered a Western diet for 16 weeks to induce hypercholesterolemia and atherosclerosis.
(§2) Atherosclerosis Analyses and Cross-section Immunofluorescence Staining: The extent of atherosclerosis was examined both in Oil-Red-O-stained cross-sections of the proximal aorta and by en face analysis using the KS300 imaging system (Kontron Elektronik GmbH). For immunofluorescence staining, 5 μm cross-sections of the proximal aorta were fixed in cold acetone (Sigma), blocked in Background Buster (Innovex), incubated with indicated primary antibodies (MDA and CD68) at 4° C. for overnight. After incubation with fluorescent labeled secondary antibodies at 37 C for 1 hour, the nucleus was counter stained with Hoechst. Images were captured with a fluorescence microscope (Olympus IX81) and SlideBook 6 (Intelligent-Image) software and quantitated using ImageJ software (NIH).

[3] = test system: atherosclerotic lesions of Ldlr^−/− mice; experiment: Masson's Trichrome staining of lesions (collagen content, fibrous cap thickness, necrotic core); format: in vivo, mouse
Experimental: as §1
Masson's Trichrome Staining: Masson's Trichrome Staining was applied for measurement of atherosclerotic lesion collagen content, fibrous cap thickness and necrotic core size following the manufacture's instruction (Sigma) and as previously described. Briefly, 5 μm cross-sections of proximal atherosclerotic aorta root were fixed with Bouin's solution, stained with hematoxylin for nuclei (black), biebrich scarlet and phosphotungstic/phosphomolybdic acid for cytoplasm (red), and aniline blue for collagen (blue). Images were captured and analyzed for collagen content, atherosclerotic cap thickness and necrosis core by ImageJ software as described earlier.

[4] = Body weight and plasma total cholesterol and triglyceride levels of treated mice; format: in vivo, mouse; details: compared to vehicle or 4-HOBA; data not shown
Experimental: as §1

[5] = background statement; cited from earlier work; remark: listed apart in the source
MDA-LDL adducts = experiment: Plasma MDA-LDL sandwich ELISA; format: in vivo, mouse; details: western diet 16 weeks
Experimental: as §1
(§3) Measurement of MDA-LDL, MDA-HDL, and MDA-ApoAI: Sandwich ELISA was used to measure plasma MDA-LDL and MDA-HDL levels following the manufacturer's instructions (Cell BioLabs, Inc.). Briefly, isolated LDL or HDL samples and MDA-HDL standards were added onto anti-MDA coated plates, and after blocking, the samples were incubated with biotinylated anti-apoB or anti-ApoAI primary antibody. The samples were then incubated for 1 h with streptavidin-enzyme conjugate and 15 min with substrate solution. After stopping the reaction, the O.D. was measured at 450 nm wavelength. MDA-ApoAI was detected in mouse plasma by immunoprecipitation of ApoAI and western blotting. […] Proteins were visualized and quantitated by Odyssey 3.0 Quantification software (LI-COR).

peritoneal macrophages = experiment: Macrophage inflammatory response, real time PCR of IL-1β, IL-6, TNF-α mRNA; format: cell-based, mouse; details: oxidized LDL, 24 h
Experimental: (§4) Cell Culture: Peritoneal macrophages were isolated from mice 72 hours post injection of 3% thioglycollate and maintained in DMEM plus 10% fetal bovine serum (FBS, Gibco) as previously described. Human aortic endothelial cells (HAECs) were obtained from Lonza and maintained in endothelial cell basal medium-2 plus 1% FBS and essential growth factors (Lonza).
RNA Isolation and Real-Time RT-PCR: Total RNA was extracted and purified using Aurum Total RNA kit (Bio-Rad) according to the manufacturer's protocol. Complementary DNA was synthesized with iScript reverse transcriptase (Bio-Rad). Relative quantitation of the target mRNA was performed using specific primers, SYBR probe (Bio-Rad), and iTaqDNA polymerase (Bio-Rad) on IQ5 thermocylcer (Bio-Rad) and normalized with 18S, as described earlier. 18S, IL-1β and TNF-α primers used were as described earlier.

[6] = test system: atherosclerotic lesions of Ldlr^−/− mice; experiment: Lesion apoptosis (TUNEL) and efferocytosis in proximal aorta sections; format: in vivo, mouse
Experimental: as §1
(§5) In vitro Cellular Apoptosis and Analysis of Lesion Apoptosis and Efferocytosis: Cell apoptosis was induced as indicated and detected by fluorescent labeled Annexin V staining and quantitated by either Flow Cytometry (BD 5 LSRII) or counting Annexin V positive cells in images captured under a fluorescent microscope. The apoptotic cells in atherosclerotic lesion were measured by TUNEL staining of cross-sections of atherosclerotic proximal aorta as previously described. The TUNEL positive cells not associated with live macrophages were considered free apoptotic cells and macrophage-associated apoptotic cells were considered phagocytosed as a measure of lesion efferocytosis as previously described.

[7] = test system: ApoE−/− macrophage foam cells; experiment: Capacity of HDL isolated from treated mice to reduce macrophage cholesterol; format: cell-based, mouse; details: HDL 25 μg protein/ml, 24 h
Experimental: as §1
HDL Isolation from Mouse Plasma and Measurement of HDL Capacity to Reduce Macrophage Cholesterol: HDL was isolated from mouse plasma using HDL Purification Kit (Cell BioLabs, Inc.) following the manufacturer's protocol. Briefly, apoB containing lipoproteins and HDL were sequentially precipitated with dextran sulfate. The HDL was then resuspended and washed. After removing the dextran sulfate, the HDL was dialyzed against PBS. To measure the capacity of the HDL to reduce macrophage cholesterol, apoE^−/− macrophages were cholesterol enriched by incubation for 48 h in DMEM containing 100 μg protein/ml of acetylated LDL. […] Cellular cholesterol was measured before and after incubation with HDL using an enzymatic cholesterol assay as described.

aortic endothelial cells = experiment: H2O2 induced apoptosis, Annexin V staining, endothelial cells; format: cell-based, mouse; details: 250 μM H2O2, 24 h; compared to vehicle or 4-HOBA
Experimental: as §4, §5

MDA-HDL adducts = experiment: Plasma MDA-HDL sandwich ELISA; format: in vivo, mouse; details: western diet 16 weeks
Experimental: as §1, §3

MDA-apoAI adducts = experiment: Plasma apoAI immunoprecipitation and western blotting for MDA-apoAI and apoAI; format: in vivo, mouse; details: western diet 16 weeks
Experimental: as §1
Measurement of MDA-LDL, MDA-HDL, and MDA-ApoAI: Sandwich ELISA was used to measure plasma MDA-LDL and MDA-HDL levels following the manufacturer's instructions (Cell BioLabs, Inc.). Briefly, isolated LDL or HDL samples and MDA-HDL standards were added onto anti-MDA coated plates, and after blocking, the samples were incubated with biotinylated anti-apoB or anti-ApoAI primary antibody. The samples were then incubated for 1 h with streptavidin-enzyme conjugate and 15 min with substrate solution. After stopping the reaction, the O.D. was measured at 450 nm wavelength. MDA-ApoAI was detected in mouse plasma by immunoprecipitation of ApoAI and western blotting. Briefly, 50 μl of mouse plasma were prepared with 450 μL of IP Lysis Buffer (Pierce) plus 0.5% protease inhibitor mixture (Sigma), and immunoprecipitated with 10 μg of polyclonal antibody against mouse ApoAI (Novus). Then 25 μL of magnetic beads (Invitrogen) was added, and the mixture was incubated for 1 h at 4° C. with rotation. The magnetic beads were then collected, washed three times, and SDS-PAGE sample buffer with β-mercaptoethanol was added to the beads. After incubation at 70° C. for 5 min, magnetic field was applied to the Magnetic Separation Rack (New England), and the supernatant was used for detecting mouse ApoAI or MDA. For Western blotting, 30-60 μg of proteins was resolved by NuPAGE Bis-Tris electrophoresis (Invitrogen), and transferred onto nitrocellulose membranes (Amersham Bioscience). Membranes were probed with primary rabbit antibodies specific for ApoAI (Novus) or MDA (Cell signaling) and fluorescent tagged IRDye 680 (LI-COR) secondary antibody. Proteins were visualized and quantitated by Odyssey 3.0 Quantification software (LI-COR).

[8] = test system: MDA content of proximal aortic atherosclerotic lesions in Ldlr^−/− mice; experiment: MDA immunofluorescence of proximal aortic atherosclerotic lesions; format: in vivo, mouse
Experimental: as §1, §2

[9] = background statement; cited from earlier work; remark: listed apart in the source
primary macrophages = experiment: H2O2 induced apoptosis, Annexin V staining, macrophages; format: cell-based, mouse; details: 250 μM H2O2, 24 h; compared to vehicle or 4-HOBA
Experimental: as §4, §5

macrophages = experiment: In vitro modification of LDL with MDA, then macrophage cholesterol content; format: cell-based; details: 2-HOBA present during LDL (5 mg/mL) modification with MDA (10 mM); versus vehicle; LDL with macrophages 24 h
Experimental: Modification of HDL and LDL with MDA: MDA was prepared immediately before use by rapid acid hydrolysis of maloncarbonyl bis-(dimethylacetal) as described. Briefly, 20 μL of 1 M HCl was added to 200 μL of maloncarbonyl bis-(dimethylacetal), and the mixture was incubated for 45 min at room temperature. The MDA concentration was determined by absorbance at 245 nm, using the coefficient factor 13, 700 M-1 cm-1. HDL (10 mg of protein/mL) and increasing doses of MDA (0, 0.125 mM, 0.25 mM, 0.5 mM, 1 mM) were incubated at 37° C. for 24 h in 50 mM sodium phosphate buffer (pH7.4) containing DTPA 100 μM. Reactions were initiated by adding MDA and stopped by dialysis of samples against PBS at 4° C. LDL (5 mg/mL) was modified in vitro with MDA (10 mM) in the presence of vehicle alone or with 2-HOBA at […] for 24 h in 50 mM sodium phosphate buffer (pH7.4) containing DTPA 100 μM. Reactions were initiated by adding MDA and stopped by dialysis of samples against PBS at 4° C. The LDL samples were incubated for 24 h with macrophages and the cholesterol content of the cells was measured using an enzymatic cholesterol assay as described.

[10] = summary value, compared to vehicle or 4-HOBA
[11] = in contrast to vehicle or 4-HOBA
[12] = compared to Ldlr−/− mice consuming a chow diet

## NCc1ccccc1O [2-HOBA, 2-hydroxybenzylamine]
[1]
  reaction with lipid dicarbonyls (dicarbonyl scavenger): rapidly reacts
[2]; compared to 4-HOBA
  reduction of atherosclerosis, en face analysis of the aorta: 59.1%
  reduction of the extent of proximal aortic atherosclerosis: 31.5%
[2]; compared to vehicle
  reduction of atherosclerosis, en face analysis of the aorta: 60.3%
  reduction of the extent of proximal aortic atherosclerosis: 31.1%
[2]; [10]
  decrease of atherosclerosis in en face aortas: 60%
  decrease of atherosclerosis in the proximal aortas: 31%
[3]; compared to 4-HOBA
  increase of collagen content of the proximal aorta: 2.6 fold
[3]; compared to vehicle
  increase of collagen content of the proximal aorta: 2.7 fold
[3]; summary value
  increased collagen content: 2.7 fold
  increased fibrous cap thickness: 2.1 fold
[3]; summary value, p<0.01
  reduction in necrotic core: 69%
[3]; versus 4-HOBA
  decrease of % necrotic area in the proximal aorta: 73.5%
[3]; versus 4-HOBA treated mice
  fibrous cap thickness, fold greater: 2.29 fold
[3]; versus vehicle
  decrease of % necrotic area in the proximal aorta: 74.8%
[3]; versus vehicle treated mice
  fibrous cap thickness, fold greater: 2.31 fold
[4]
  effect on body weight: did not affect
[5]
  oral bioavailability: orally bioavailable
MDA-LDL adducts; compared to 4-HOBA
  reduction of plasma MDA-LDL levels: 54%
MDA-LDL adducts; compared to vehicle
  reduction of plasma MDA-LDL levels: 57%
Peritoneal macrophages
  IL-1β mRNA level: significantly reduced
  IL-6 mRNA level: significantly reduced
  TNF-α mRNA level: significantly reduced
[6]; 4-HOBA treated mice versus 2-HOBA treated mice
  number of TUNEL positive cells not associated with macrophages, fold increase (efferocytosis): 2.0 fold
[6]; compared to 4-HOBA
  reduction of the number of TUNEL positive cells in the proximal aortic lesion: 72.4%
[6]; compared to vehicle
  reduction of the number of TUNEL positive cells in the proximal aortic lesion: 72.9%
[6]; summary value, compared to 4-HOBA or vehicle treated mice
  reduction of the number of atherosclerotic lesion TUNEL positive cells: 72%
[6]; vehicle treated mice versus 2-HOBA treated mice
  number of TUNEL positive cells not associated with macrophages, fold increase (efferocytosis): 1.9 fold
[7]; versus 4-HOBA treated mice
  efficiency of HDL from treated mice at reducing cholesterol stores in macrophage foam cells, fold: 1.7 fold
[7]; versus vehicle treated mice
  efficiency of HDL from treated mice at reducing cholesterol stores in macrophage foam cells, fold: 2.2 fold
Aortic endothelial cells
  number of apoptotic cells in endothelial cell cultures: markedly decreased
MDA-HDL adducts; compared to 4-HOBA
  reduction of plasma MDA-HDL levels: 56%
MDA-HDL adducts; compared to vehicle
  reduction of plasma MDA-HDL levels: 57%
MDA-apoAI adducts; [11]
  plasma MDA-apoAI adducts: dramatically reduced
  plasma apoAI levels: increased
[8]; compared to 4-HOBA
  reduction of MDA levels in the proximal aorta: 66.8%
[8]; compared to vehicle alone
  reduction of MDA levels in the proximal aorta: 68.5%
[9]
  reaction with lipid monocarbonyls: not with lipid monocarbonyls
Primary macrophages
  number of apoptotic cells in macrophage cultures: markedly decreased
macrophages
  ability of MDA modified LDL to increase cholesterol accumulation in macrophages: reduced

## NCc1ccc(O)cc1 [4-HOBA, 4-hydroxybenzylamine, reference compound]
[1]
  reaction with lipid dicarbonyls (dicarbonyl scavenger): ineffective
[2]; Ldlr−/− mice
  atheroprotection: not atheroprotective
[5]
  oral bioavailability: orally bioavailable
MDA-apoAI adducts; [12]
  plasma apoAI levels: reduced
  plasma levels of MDA-apoAI: markedly increased
